According to patent US20140057887A1, “NOVEL PLATINUM-CARBENE COMPLEXES AND USE THEREOF AS MEDICAMENTS” (priority 2010, published 2014):

Assays:
MCF7 [1] = experiment: Cytotoxicity in vitro, IC50 on MCF7; format: cell-based; details: breast carcinoma
Protocol: (§1) (5% CO2). […] All the treatments are carried out in triplicate.
(§2) The cytotoxicity of a compound against a cancer cell line is evaluated.

HCT116 [2] = experiment: Cytotoxicity in vitro, IC50 on HCT116; format: cell-based, human; details: measured by first dissolving cisplatin in water
Protocol: as §1, §2

PC3 [3] = experiment: Cytotoxicity in vitro, IC50 on PC3; format: cell-based; details: measured by first dissolving cisplatin in water
Protocol: as §1
(§3) PC3: prostatic adenocarcinoma
as §2

SK-OV3 [4] = experiment: Cytotoxicity in vitro, IC50 on SK-OV3; format: cell-based; details: ovarian adenocarcinoma
Protocol: as §1
(§4) SK-OV-3 and OVCAR8: ovarian adenocarcinomas
as §2

OVCAR8 [5] = experiment: Cytotoxicity in vitro, IC50 on OVCAR8; format: cell-based; details: ovarian adenocarcinoma
Protocol: as §1, §4, §2

EPC [6] = experiment: Cytotoxicity in vitro, IC50 on EPC (endothelial progenitor cells); format: cell-based
Protocol: as §1
(§5) EPC: endothelial progenitor cells
(§6) The endothelial progenitor cells (EPC) play an important role in angiogenesis and vasculogenesis; these last-mentioned contribute to tumour growth, are mobilized by cytokines secreted at cancer sites and contribute to postnatal vasculogenesis and to pathological neovascularization.
as §2

KB = experiment: Percentage of cellular inhibition at 10 μM, KB; format: cell-based; details: final concentration 10 μM; buccal carcinoma
Protocol: as §1

SK-OV3 [7] = experiment: Percentage of cellular inhibition at 10 μM, SK-OV3; format: cell-based; details: for Inhibition (in %) {SK-OV3}: final concentration 10 μM, ovarian adenocarcinoma
Protocol: as §1, §4

OVCAR8 [8] = experiment: Percentage of cellular inhibition at 10 μM, OVCAR8; format: cell-based; details: for Inhibition (in %) {OVCAR8}: final concentration 10 μM, ovarian adenocarcinoma
Protocol: as §1, §4

HL60 = experiment: Percentage of cellular inhibition at 10 μM, HL60; format: cell-based; details: final concentration 10 μM; leukaemia
Protocol: as §1

MCF7 [9] = experiment: Percentage of cellular inhibition at 10 μM, MCF7; format: cell-based; details: final concentration 10 μM; breast carcinoma
Protocol: as §1

HCT116 [10] = experiment: Percentage of cellular inhibition at 10 μM, HCT116; format: cell-based, human; details: final concentration 10 μM; colon carcinoma
Protocol: as §1

PC3 [11] = experiment: Percentage of cellular inhibition at 10 μM, PC3; format: cell-based; details: final concentration 10 μM; prostatic adenocarcinoma
Protocol: as §1, §3

MRC5 = experiment: Percentage of cellular inhibition at 10 μM, MRC5; format: cell-based, human; details: for Inhibition (in %) {MRC5}: final concentration 10 μM, human fetal lung cells (non-cancerous)
Protocol: as §1
MRCS: human fetal lung cells

Vero = experiment: Percentage of cellular inhibition at 10 μM, Vero; format: cell-based, monkey; details: for Inhibition (in %) {Vero}: final concentration 10 μM, monkey kidney epithelial cells (non-cancerous)
Protocol: as §1
Vero: monkey kidney epithelial cells

EPC [12] = experiment: Percentage of cellular inhibition at 10 μM, EPC; details: for Inhibition (in %) {EPC}: final concentration 10 μM, endothelial progenitor cells
Protocol: as §1, §6, §5

U87 = experiment: MTS cytotoxicity assay, IC50 on U87 cell line; details: read-out: IC50 {U87} (in μM); MTS assay, 48 h incubation
Protocol: (§7) MTS [3-(4,5-dimethylthiazol-2-yl)-5-(3-carboxymethoxyphenyl)-2-(4-sulphophenyl)-2H-tetrazolium] is reduced to formazan (coloured compound, the optical density of which is measured at 492 nm) by the mitochondrial dehydrogenases. Only the live cells will reduce MTS to formazan, which will be released in the medium. The optical density measured at 492 nm is directly proportional to the number of live cells.
(§8) MTS [3-(4,5-dimethylthiazol-2-yl)-5-(3-carboxymethoxyphenyl)-2-(4-sulphophenyl)-2H-tetrazolium], soluble in the culture medium, can be reduced to formazan (coloured product) by the mitochondrial dehydrogenases of the live cells. The measured optical density (492 nm) is therefore directly proportional to the quantity of live cells. The cells are deposited in a 96-well plate at 1.10^4 cells per well in 100 μL of RPMI 5% FCS. The cells are then treated with the various molecules at the desired concentrations and then incubated for 48 h at 37° C. (5% CO2). After treatment, 20 μL of MTS is added to each well. After incubation for two hours at 37° C. the optical density is measured at an absorbance of 492 nm using the plate reader Wallac Victor 2 Multi-label Counter (Technical University of Denmark, Kongens Lyngby, Denmark). All the treatments are carried out in triplicate. The blank, determined by incubating RPMI with MTS, is deducted from the values of the wells containing cells. The percentage of live cells is calculated from the following formula: (OD experiment*100)/OD control.
(§9) The cytotoxicity of the compounds according to the invention is measured in vitro on the Hela and U87 cell lines.
U87: stage IV glioblastoma, expresses αVβ5 and can be used as a xenograft
(§10) The cytotoxicity of a compound with respect to a cancer cell line is evaluated from the value of the inhibitory concentration IC50 of said compound with respect to said cell line.
(§11) The MTS assay gives an optical density signal that is proportional to the quantity of live cells (in a linear range). These values, as well as the untreated controls, are used for calculating the percentage of live cells at each concentration. […] The IC50 values are calculated on the basis of 4-parameter fitting using the Sigma Plot software.

Hela = experiment: MTS cytotoxicity assay, IC50 on Hela cell line; details: read-out: IC50 {Hela} (in μM); MTS assay, 48 h incubation
Protocol: as §7, §8, §9, §10, §11

integrin αvβ3 = integrin αvβ3 (Homo sapiens, UniProt P05106+P06756); details: background statement; cited from earlier work
Chain of integrin αvβ3 (P06756 31-889 limits assumed): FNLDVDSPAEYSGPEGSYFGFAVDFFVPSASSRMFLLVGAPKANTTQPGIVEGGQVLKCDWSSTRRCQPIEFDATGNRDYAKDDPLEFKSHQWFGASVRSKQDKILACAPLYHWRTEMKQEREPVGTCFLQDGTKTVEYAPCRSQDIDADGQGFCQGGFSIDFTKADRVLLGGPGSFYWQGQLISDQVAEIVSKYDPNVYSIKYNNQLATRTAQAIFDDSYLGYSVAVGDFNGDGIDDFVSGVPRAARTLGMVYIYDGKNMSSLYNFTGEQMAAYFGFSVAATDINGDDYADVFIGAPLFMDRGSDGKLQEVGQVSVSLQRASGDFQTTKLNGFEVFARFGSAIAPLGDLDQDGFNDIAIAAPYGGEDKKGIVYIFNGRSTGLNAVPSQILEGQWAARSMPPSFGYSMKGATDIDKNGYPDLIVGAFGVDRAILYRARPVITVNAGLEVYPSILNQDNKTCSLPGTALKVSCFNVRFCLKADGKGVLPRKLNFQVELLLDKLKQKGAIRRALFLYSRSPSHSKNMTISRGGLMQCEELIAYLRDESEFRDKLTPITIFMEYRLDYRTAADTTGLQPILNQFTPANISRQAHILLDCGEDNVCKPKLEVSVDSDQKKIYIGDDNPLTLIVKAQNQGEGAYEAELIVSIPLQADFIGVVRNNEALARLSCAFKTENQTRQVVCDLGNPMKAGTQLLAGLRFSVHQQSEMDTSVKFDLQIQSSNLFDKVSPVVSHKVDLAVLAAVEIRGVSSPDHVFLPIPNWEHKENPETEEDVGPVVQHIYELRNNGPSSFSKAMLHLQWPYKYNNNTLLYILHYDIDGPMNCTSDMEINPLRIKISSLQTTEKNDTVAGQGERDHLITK
Chain of integrin αvβ3 (P06756 891-1048 partner limits assumed): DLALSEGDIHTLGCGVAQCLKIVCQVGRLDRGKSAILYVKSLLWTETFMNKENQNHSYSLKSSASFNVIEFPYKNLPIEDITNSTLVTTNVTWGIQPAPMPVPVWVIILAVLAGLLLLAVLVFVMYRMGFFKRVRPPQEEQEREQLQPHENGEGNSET
Chain of integrin αvβ3 (P05106 27-788): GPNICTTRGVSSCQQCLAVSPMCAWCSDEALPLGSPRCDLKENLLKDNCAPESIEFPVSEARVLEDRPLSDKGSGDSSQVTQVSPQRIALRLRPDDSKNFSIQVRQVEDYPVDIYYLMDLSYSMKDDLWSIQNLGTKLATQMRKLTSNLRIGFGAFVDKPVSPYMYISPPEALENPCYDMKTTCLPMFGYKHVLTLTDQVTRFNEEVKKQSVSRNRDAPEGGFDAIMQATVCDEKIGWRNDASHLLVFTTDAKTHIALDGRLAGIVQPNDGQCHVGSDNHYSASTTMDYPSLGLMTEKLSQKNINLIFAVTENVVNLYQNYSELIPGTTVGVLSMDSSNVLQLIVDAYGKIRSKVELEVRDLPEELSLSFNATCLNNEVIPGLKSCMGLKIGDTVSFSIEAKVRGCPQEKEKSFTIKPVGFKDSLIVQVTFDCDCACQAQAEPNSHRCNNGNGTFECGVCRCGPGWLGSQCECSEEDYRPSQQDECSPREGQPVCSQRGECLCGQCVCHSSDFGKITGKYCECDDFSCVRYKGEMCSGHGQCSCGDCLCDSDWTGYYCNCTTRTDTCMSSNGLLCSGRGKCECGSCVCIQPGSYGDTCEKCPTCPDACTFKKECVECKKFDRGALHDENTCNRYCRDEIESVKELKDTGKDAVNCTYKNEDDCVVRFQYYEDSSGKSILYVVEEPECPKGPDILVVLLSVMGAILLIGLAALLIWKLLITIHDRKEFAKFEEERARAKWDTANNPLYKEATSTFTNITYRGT

[13] = tested on: cell lines KB, SK-OV3, OVCAR-8, HL60, MCF7, HCT116, PC3, MRCS, Vero and EPC; experiment: Cellular inhibition, overall statements on the panel of cell lines; format: cell-based; details: 10 μM, panel of cancer and non-cancerous cell lines
From the text: The results obtained are presented below.

Compound | IC50 (SK-OV3 [4]) | IC50 (OVCAR8 [5]) | Inhibition (in %) {KB} (KB) | Inhibition (in %) {SK-OV3} (SK-OV3 [7]) | Inhibition (in %) {OVCAR8} (OVCAR8 [8]) | Inhibition (in %) {HL60} (HL60) | Inhibition (in %) {MCF7} (MCF7 [9]) | Inhibition (in %) {HCT116} (HCT116 [10]) | Inhibition (in %) {PC3} (PC3 [11]) | Inhibition (in %) {MRC5} (MRC5) | Inhibition (in %) {Vero} (Vero) | Inhibition (in %) {EPC} (EPC [12]) | other results
N.N.[Cl][Pt][Cl] [Cisplatin, cisplatin, reference compound] | > 10 µM | > 10 µM | 3.6% | 4.4% | −1.8% | −10.6% | −4.1% | 2.7% | −6.2% | −20.4% | −4.0% | −1.2% | IC50 (MCF7 [1]): > 10 µM; IC50 (HCT116 [2]): 5.5 µM; IC50 (PC3 [3]): 5.1 µM; IC50 (EPC [6]): > 10 µM; IC50 (U87): 8 µM; IC50 (Hela): 26.2 µM
cyclo(RGDfK) [cyclo(RGDfK) peptide] |  |  |  |  |  |  |  |  |  |  |  |  | affinity for integrin αvβ3 (in words) (integrin αvβ3): high affinity
COCCOCCOCCOCCn1ccn(CCOCCOCCOCCOC)[c]1=[Pt]([I])[I].NC1CCCCC1 [Example 14, trans-diiodo(N-cyclohexylamine)[1,3-di(2,5,8,11-tetraoxatridecan-13-yl)-imidazol-2-ylidene]platinum(II)] | 6.2 µM | 3.9 µM | 26.6% | 62.8% | 78.4% | 31.2% | 18.6% | 31.9% | 5.7% | 24.5% | 17.0% | 27.2% | selectivity of inhibition of cell growth, SKOV-3 (in words) (SK-OV3 [7]; 10 μM): selective with respect to the ovarian cancer cells SKOV-3 and OVCAR8; selectivity of inhibition of cell growth, OVCAR8 (in words) (OVCAR8 [8]; 10 μM): selective with respect to the ovarian cancer cells SKOV-3 and OVCAR8; cytotoxicity on non-cancerous cells MRCS (in words) (MRC5; 10 μM): low cytotoxicity; cytotoxicity on non-cancerous cells Vero (in words) (Vero; 10 μM): low cytotoxicity; cytotoxicity on non-cancerous cells EPC (in words) (EPC [12]; 10 μM): low cytotoxicity; inhibition of cell growth, overall statement on the cell panel (in words) [13]: selective inhibitor of the growth of cancer cells
